Results as given in patent US9969709B2, “Guanidinobenzoic acid ester compound” (Takeda Pharmaceutical Company Limited, priority 2013, dated 2018).

Tests used:
[1] = system: T1, mouse trypsin (m-trypsin); test: Trypsin inhibitory activity, mouse trypsin purified from small intestine contents, BZiPAR fluorescent substrate; assay type: biochemical; conditions: 30 min at room temperature
T1 construct: mouse trypsin (m-trypsin)
Source text: 1. Confirmation of Trypsin Inhibitory Activity in Humans and Mice
In the experiment, human recombinant trypsin (rh-trypsin; manufactured by Wako Pure Chemical Industries, Ltd.), cat. #206-17171) and mouse trypsin (m-trypsin; purified from the mouse small intestine contents by the present inventors) were used. The method for purifying m-trypsin from the contents of the mouse small intestine is shown below.
The small intestine contents and the gastrointestinal tract obtained from 10 mice were homogenized in phosphate buffer saline (PBS) using Polytron, and subjected to centrifugation several times at 15,000×g for 10 minutes. The supernatant was mixed at 4° C. for 16 hours with a Benzamidine Sepharose 4 Fast Flow Resin (GE Healthcare: #17-5123-10). After washing the resin with PBS, m-trypsin was eluted with a glycine buffer (pH 3.0) to carry out purification. It was confirmed by Western blot analysis that the obtained purified fraction was recognized as an Anti-mouse Trypsin Antibody (Santa Cruz Biotechnology, Inc.: sc-67388). The method for measuring the trypsin inhibiting activity is shown below.
(§1) The compound was dissolved in dimethyl sulfoxide (DMSO), and diluted to an arbitrary concentration (A). A was 100-fold diluted with a buffer (0.1 M Tris (pH 8.0), 0.15 M NaCl, 10 mM CaCl2, 0.05% Brij35) (B). The rh-trypsin was diluted with a buffer to 0.088 μg/mL, and for the m-trypsin, the purified fraction liquid was 50-fold diluted with the buffer (C). […] A BZiPAR solution (Rhodamine Reference Substrate) which is substrate for the trypsin enzyme was diluted with the buffer to […] (D). 5 μL of B, 5 μL of C, and 10 μL of D were added to a 384-well plate, and incubated at room temperature for 30 minutes. Fluorescent signals were detected at a maximum excitement (Ex)/fluorescent wavelength (Em)=497 nm/520 nm using a Tecan Safire Fluorometer. […] Based on the obtained inhibitory rates, the trypsin inhibitory activities (IC50 values, nM) were calculated from the non-linear regression.

[2] = molecular target: T2, human recombinant trypsin (rh-trypsin) (Homo sapiens, UniProt P07477); test: Trypsin inhibitory activity, human recombinant trypsin, BZiPAR fluorescent substrate; assay type: biochemical; conditions: 30 min at room temperature, read-out: r-h Trypsin inhibitory activity (IC50)
T2 construct: purchased Wako Pure Chemical Industries, Ltd. 206-17171
Method: as §1, with “1. Confirmation of Trypsin Inhibitory Activity in Humans and Mice In the experiment, human recombinant trypsin (rh-trypsin; manufactured by Wako Pure Chemical Industries, Ltd.), cat. #206-17171) and mouse trypsin (m-trypsin; purified from the mouse small intestine contents by the present inventors) were used. The method for purifying m-trypsin from the contents of the mouse small intestine is shown below. The compound” for “The compound”

ICR mice = test: Test of increase in fecal protein concentration using mice; assay type: in vivo, mouse; conditions: Mus musculus, po, 9 h, 5 mg/kg oral, male ICR mice, feces collected 3 to 9 hours after feeding started, control group = 1; read-out: Fecal protein, Folds (vs. control)
Method: 2. Test of Increase in Fecal Protein Concentration Using Mice
For the experiment, 6-week old male ICR mice were used. The experiment was carried out in five mice per group. After fasting the mice for 15 hours, the control group was forcibly orally administered with a 0.5% methyl cellulose (MC) solution, and the test drug group was forcibly orally administered (5 mg/kg) with a solution or suspension obtained by dissolving or suspending the compound in the 0.5% MC solution. The fasting was stopped immediately thereafter, free feeding (CE-2) was started, and then the feces were collected from after 3 hours to after 9 hours, and weighed. All of the obtained feces were suspended in 6 mL of distilled water, and centrifuged at 1,940×g for 10 minutes. The protein concentration in the obtained supernatant was measured by a Bradford method, and the amount of the protein in 1 g of feces was calculated by dividing the protein concentration in the feces by the total weight of feces. Further, the efficacy was investigated from the ratio to the control group. For the compounds that were evaluated multiple times, the average values were calculated.
The results of the activities with an increase in Fecal Protein, assuming a value for the control group as 1, are shown in Table 2.

| Compound | IC50 [1] | IC50 [2] | response vs control in vivo at 5 mg/kg (ICR mice) |
| --- | --- | --- | --- |
| N=C(N)Nc1ccc(C(=O)Oc2ccc3c(C(=O)N(CC(=O)O)Cc4csc(C(=O)O)c4)csc3c2)cc1 [Example 13] | 0.36 nM | 0.25 nM | 273% |
| N=C(N)Nc1ccc(C(=O)Oc2ccc3cc(C(=O)N(CC(=O)O)Cc4cccc(C(=O)O)c4)ccc3c2)cc1 [Example 14] | 0.26 nM | 0.23 nM | 179% |
| N=C(N)Nc1ccc(C(=O)Oc2ccc3c(C(=O)N(CC(=O)O)Cc4cccc(C(=O)O)c4)cccc3c2)cc1 [Example 15] | 0.18 nM | 0.1 nM | 261% |
| N=C(N)Nc1ccc(C(=O)Oc2ccc3cc(C(=O)N(CC(=O)O)Cc4ccc(CC(=O)O)cc4)ccc3c2)cc1 [Example 16] | 0.24 nM | 0.14 nM | 239% |
| N=C(N)Nc1ccc(C(=O)Oc2ccc3c(C(=O)N(CC(=O)O)Cc4ccc(CC(=O)O)cc4)cccc3c2)cc1 [Example 17] | 0.27 nM | 0.22 nM | 270% |
| C[C@H](C(=O)O)N(Cc1csc(C(=O)O)c1)C(=O)c1cccc2cc(OC(=O)c3ccc(NC(=N)N)cc3)ccc12 [Example 18] | 0.48 nM | 0.29 nM | 218% |
| C[C@H](C(=O)O)N(Cc1csc(C(=O)O)c1)C(=O)CC1CCCc2cc(OC(=O)c3ccc(NC(=N)N)cc3)ccc21 (stereo partly drawn) [Example 19] | 0.6 nM | 0.39 nM | 251% |
| N=C(N)Nc1ccc(C(=O)Oc2ccc3c(c2)CCC(C(=O)N(CC(=O)O)Cc2ccc(CC(=O)O)cc2)C3)cc1 (stereo not drawn) [Example 20] | 0.77 nM | 0.47 nM | 223% |
| C[C@H](C(=O)O)N(Cc1csc(C(=O)O)c1)C(=O)C1CCc2cc(OC(=O)c3ccc(NC(=N)N)cc3)ccc2C1 (stereo partly drawn) [Example 21] | 0.52 nM | 0.38 nM | 251% |
| N=C(N)Nc1ccc(C(=O)Oc2ccc3c(c2)CCCC3CC(=O)N(CC(=O)O)[C@@H](Cc2ccccc2)C(=O)O)cc1 (stereo partly drawn) [Example 22] | 0.44 nM | 0.34 nM | 215% |
| N=C(N)Nc1ccc(C(=O)Oc2ccc3c(C(=O)N(CC(=O)O)Cc4ccc(CC(=O)O)cc4)csc3c2)cc1 [Example 23] | 0.46 nM | 0.46 nM | 253% |
| N=C(N)Nc1ccc(C(=O)Oc2ccc3c(c2)CCC(C(=O)N(CC(=O)O)Cc2ccc4sc(C(=O)O)cc4c2)C3)cc1 (stereo not drawn) [Example 24] | 0.24 nM | 0.23 nM | 151% |
| N=C(N)Nc1ccc(C(=O)Oc2ccc3c(c2)CCCC3CC(=O)N(CC(=O)O)Cc2ccc3sc(C(=O)O)cc3c2)cc1 (stereo not drawn) [Example 25] | 0.35 nM | 0.28 nM | 135% |
| N=C(N)Nc1ccc(C(=O)Oc2ccc3c(c2)CCCC3CC(=O)N(CC(=O)O)Cc2ccc(CC(=O)O)cc2)cc1 (stereo not drawn) [Example 26] | 0.34 nM | 0.33 nM | 170% |
| N=C(N)Nc1ccc(C(=O)Oc2ccc3c(c2)CCCC3CC(=O)N(CC(=O)O)Cc2csc(C(=O)O)c2)cc1 (stereo not drawn) [Example 27] | 0.35 nM | 0.32 nM | 198% |
| N=C(N)Nc1ccc(C(=O)Oc2ccc3c(c2)CCCC3CC(=O)N(CCc2ccc(C(=O)O)cc2)CC(=O)O)cc1 (stereo not drawn) [Example 28] | 0.4 nM | 0.38 nM | 154% |

| Compound | IC50 [1] | IC50 [2] | response vs control in vivo at 5 mg/kg (ICR mice) |
| --- | --- | --- | --- |
| C[C@H](C(=O)O)N(Cc1csc(C(=O)O)c1)C(=O)c1csc2cc(OC(=O)c3ccc(NC(=N)N)cc3)ccc12 [Example 29] | 0.23 nM | 0.26 nM | 143% |
| N=C(N)Nc1ccc(C(=O)Oc2ccc3c(c2)CCCC3CC(=O)N2Cc3cc(C(=O)O)ccc3C[C@@H]2C(=O)O)cc1 (stereo partly drawn) [Example 30] | 0.28 nM | 0.25 nM | 168% |
| N=C(N)Nc1ccc(C(=O)Oc2ccc3c(c2)CCC(C(=O)N(CC(=O)O)[C@@H](Cc2ccccc2)C(=O)O)C3)cc1 (stereo partly drawn) [Example 31] | 0.22 nM | 0.23 nM | 151% |
| N=C(N)Nc1ccc(C(=O)Oc2ccc3c(C(=O)N(CC(=O)O)Cc4ccc5sc(C(=O)O)cc5c4)csc3c2)cc1 [Example 32] | 0.14 nM | 0.15 nM | 190% |
| N=C(N)Nc1ccc(C(=O)Oc2ccc3cc(C(=O)N(CC(=O)O)Cc4ccc5sc(C(=O)O)cc5c4)ccc3c2)cc1 [Example 33] | 0.16 nM | 0.18 nM | 139% |
| N=C(N)Nc1ccc(C(=O)Oc2ccc3c(C(=O)N(CC(=O)O)Cc4ccc5sc(C(=O)O)cc5c4)cccc3c2)cc1 [Example 34] | 0.17 nM | 0.21 nM | 207% |
| N=C(N)Nc1ccc(C(=O)Oc2ccc3c(c2)CCC(C(=O)N[C@@H](Cc2ccc(C(=O)O)cc2)C(=O)O)C3)cc1 (stereo partly drawn) [Example 35] | 0.42 nM | 0.37 nM | 159% |
| N=C(N)Nc1ccc(C(=O)Oc2ccc3c(c2)CCCC3CC(=O)N[C@@H](Cc2ccc(C(=O)O)cc2)C(=O)O)cc1 (stereo partly drawn) [Example 36] | 0.28 nM | 0.26 nM | 190% |
| N=C(N)Nc1ccc(C(=O)Oc2ccc3cc(C(=O)N[C@@H](Cc4ccc(C(=O)O)cc4)C(=O)O)ccc3c2)cc1 [Example 37] | 0.18 nM | 0.24 nM | 174% |
| N=C(N)Nc1ccc(C(=O)Oc2ccc3c(c2)CCCC3CC(=O)N(CC(=O)O)Cc2csc(CC(=O)O)c2)cc1 (stereo not drawn) [Example 38] | 0.23 nM | 0.26 nM | 191% |
| N=C(N)Nc1ccc(C(=O)Oc2ccc3cc(C(=O)N(CC(=O)O)[C@@H](Cc4ccccc4)C(=O)O)ccc3c2)cc1 [Example 39] | 0.13 nM | 0.18 nM | 108% |
| N=C(N)Nc1ccc(C(=O)Oc2ccc3c(C(=O)N(CC(=O)O)[C@@H](Cc4ccccc4)C(=O)O)cccc3c2)cc1 [Example 40] | 0.27 nM | 0.29 nM | 189% |
| N=C(N)Nc1ccc(C(=O)Oc2ccc3c(c2)CCCC3CC(=O)N(CC(=O)O)Cc2cccc(CC(=O)O)c2)cc1 (stereo not drawn) [Example 41] | 0.22 nM | 0.26 nM | 201% |
| N=C(N)Nc1ccc(C(=O)Oc2ccc3c(C(=O)N(CC(=O)O)Cc4cccc(CC(=O)O)c4)cccc3c2)cc1 [Example 42] | 0.14 nM | 0.2 nM | 204% |
| N=C(N)Nc1ccc(C(=O)Oc2ccc3c(C(=O)N(CCC(=O)O)Cc4csc(C(=O)O)c4)cccc3c2)cc1 [Example 43] | 0.19 nM | 0.17 nM | 198% |
